What was measured:
[1] = system: colorectal (HCT116 and SW620) cell line models; assay: MTS growth inhibition assay; format: cell-based; conditions: increasing concentrations between 0 and 100 μmol/L; both colorectal cancer cell lines evaluated
Procedure: The Cell Titer AQueous MTS assay (Promega) is carried out according to the manufacturers guidelines. […] The combination effect is determined by the combination index (CI) method utilizing Calcusyn software (Biosoft, Ferguson, Mo.). Fraction affected (FA) is calculated from the percent growth inhibition: FA=[…]. CI values <1, synergism; 1-1.2, additive and >1.2, antagonism.
Test compounds are evaluated for their antitumor activity in colorectal cancer cells using the MTS growth inhibition assay. HCT116 and SW620 cells are exposed to increasing concentrations of each agent for 72 hours and growth inhibition is directly compared to vehicle-treated controls. The NSCLC cell lines A549 and H1299 are exposed to increasing concentrations of each agent for 72 hours and growth inhibition is directly compared to vehicle-treated controls.
MTS growth inhibition assays are performed to evaluate the effectiveness of the test compounds alone and in combination with the fluoropyrimidine thymidylate synthase (TS) inhibitor 5-fluorouracil (5-FU) at inhibiting the growth of colorectal (HCT116 and SW620) cell line models. […] Simultaneous treatment with increasing concentrations of 5-FU and a test compound at fixed concentrations of 25 μmol/L is determined.

[2] = system: colorectal (HCT116), breast (MCF-7) and non-small cell lung (H1299, A549, H358 and H460) cell line models; assay: Colony forming assay; format: cell-based; conditions: increasing concentrations between 0.5 and 2.5 μmol/L; all cell lines evaluated
Procedure: Colony forming assay showing the ability of colon (SW620, HCT116), non-small cell lung (A549, H460, H1299 and H358) and breast (MCF7) cancer cells to survive and proliferate following transient 24 hour exposure to test compounds, FUdR and combinations are determined. Specifically, cells are seeded at densities between 50 and 100 cells/well in 24-well plates. Twenty-four hours later, cells are treated with increasing concentrations of a test compound, a fixed dose of FUdR and combinations of these. After 24 hours, drug is removed, cells are rinsed and allowed to outgrow for 10-14 days. At the conclusion of the outgrowth, cells are fixed in 60% ice cold methanol and stained with 0.1% crystal violet, scanned and counted. Data is presented as percentage of untreated controls (mean±SD). Fraction affected and combination indexes are calculated according to the method of Chou and Talalay where <1 is indicative of a synergistic drug interaction.
Colony forming assays are performed to evaluate the effectiveness of test compounds alone and in combination with the fluoropyrimidine thymidylate synthase (TS) inhibitor fluorodeoxyuridine (FUdR) at reducing cancer cell viability in colorectal (HCT116), breast (MCF-7) and non-small cell lung (H1299, A549, H358 and H460) cell line models. […]

Row | Compound | growth inhibition [1] | colonies formed [2]
1 | O=c1[nH]cc(F)c(=O)[nH]1 [Compound 5-FU, 5-fluorouracil] | dose-dependent increases in growth inhibition | 
2 | O=c1[nH]c(=O)n([C@H]2C[C@H](O)[C@@H](CO)O2)cc1F [FUdR, fluorodeoxyuridine] |  | dose-dependent decreases in colonies formed
